According to PubChem BioAssay AID1159560 (GlaxoSmithKline (GSK), 2015):
Calls of active or inactive are those of the source. The rule behind the calls is not given here.

Test system: Leishmania donovani growth inhibition
Assay: Leishmania donovani growth inhibition (AID 1159560);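 note: parasites exposed to compound for 72 h before the viability read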

`Cc1ccc2onc(Nc3ccnc(Nc4cccc(S(C)(=O)=O)c4)n3)c2c1` gave an IC50 of 5 µM.
With `CN(C)CCOc1ccc(N2CCN(S(=O)(=O)c3ccc(Cl)cc3)CC2)cc1` the IC50 was 40 µM.
`COc1cc(Nc2nccc(Nc3onc(C)c3C)n2)cc(S(=O)(=O)C2CCOCC2)c1` showed an IC50 of 40 µM.
With `CS(=O)(=O)NC1CCC(Oc2cc3cnccc3cc2-c2ccsc2)CC1` (stereo not given) the IC50 was 32 µM.
Molecule `CNc1nc(C)nc(N2CCc3cc(C(=O)NCc4ccc(-c5ccn[nH]5)cc4Cl)ccc32)n1` has an IC50 of 2.5 µM.
Work on `O=C(Nc1cccc(F)c1)N1CCC(Oc2cccc(-c3cccnc3)c2)CC1` yielded an IC50 of 0.5 µM.
In the case of `CS(=O)(=O)c1ccccc1C(=O)N(Cc1ccccc1)c1ccccc1`, the IC50 is reported as 16 µM.
Work on `COc1ccc(S(=O)(=O)Nc2ccc(CN3CCN(C(=O)c4cccc(C#N)c4)CC3)cc2)cc1` yielded an IC50 of 32 µM.
In the case of `O=c1oc2ccccc2n1C1CCN(Cc2ccccc2-c2cccnc2)CC1`, the IC50 is reported as > 50 µM (inactive).
`Oc1c(-c2n[nH]c(CCc3ccccc3)n2)ncc2cccnc12` was tested, and the IC50 was 0.32 µM.
`O=C(Nc1cccc(Cl)c1)N1CCCCC1c1cccnc1` (stereo not given) showed an IC50 of 3.2 µM.
In the case of `O=C(Nc1nc2cc(Cl)ccc2o1)c1cccc(Cl)c1`, the IC50 is reported as 0.4 µM.
In the case of `Cc1[nH]nc(-c2nc3ccccc3[nH]2)c1C(=O)NC1CCCNC1` (stereo not given), the IC50 is reported as 10 µM.
With `Cc1nn(-c2nc(N)nc(-c3ccccn3)n2)c(C)c1Cc1ccccc1` the IC50 was 5 µM.
For `CNc1cc(C)nc(C2CN(C(=O)c3n[nH]c4ccccc34)CCO2)c1` (stereo not given), the IC50 was > 50 µM (inactive).
`COc1ccc(C(=O)NC2CCN(CCn3c(=O)ccc4ncc(F)cc43)CC2)cc1Cl` showed an IC50 of 4 µM.
For `Cn1nc([N+](=O)[O-])nc1N1CCCCC1`, the IC50 was > 50 µM (inactive).
For `NC(=O)c1cc(F)ccc1Nc1nc(NC2CCC(O)CC2)ncc1Br` (stereo not given), the IC50 was 1.6 µM.
With `CCCCn1c(=O)c2c(N)onc2n(CCCC)c1=O` the IC50 was > 50 µM (inactive).
Work on `COc1ccc(-c2csc(NC(=O)c3ccc([N+](=O)[O-])s3)n2)cc1OC` yielded an IC50 of 1 µM.
With `CCOc1ccc(CN(C)Cc2nc(N)nc(Nc3ccc(C)cc3)n2)cc1` the IC50 was 32 µM.
For `CN(C)S(=O)(=O)c1cccc(CSc2nnc(-c3ccc4c(c3)OCO4)o2)c1`, the IC50 was 1 µM.
In the case of `CC(C)Nc1nc(Cl)nc2ccccc12`, the IC50 is reported as 20 µM.
With `CCCCn1nnnc1CSc1nc(C)cc(C)c1C#N` the IC50 was 1.3 µM.
`O=c1ccc2ccc(F)c3c2n1C[C@H]3CN1CCC(NCc2cc3ccccc3o2)CC1` gave an IC50 of 16 µM.
With `O=C(Cn1cnc2c(-c3ccccc3)csc2c1=O)N1CCCCC1` the IC50 was > 50 µM (inactive).
In the case of `Cc1ccc2c(c1)-c1onc(C(=O)N3CCCCC3c3cccnc3)c1CO2` (stereo not given), the IC50 is reported as 32 µM.
With `CCOC(=O)c1cn[nH]c1S(=O)(=O)N1CCC1c1ccccc1` (stereo not given) the IC50 was > 50 µM (inactive).
`Cc1cc(Oc2cc(Cl)c(Cl)cc2Cl)n2ncnc2n1` showed an IC50 of 16 µM.
`CC1=C(C(=O)Nc2ccc(Cl)cc2)C(c2ccncc2)n2ncc(C(=O)Nc3ccccc3)c2N1` (stereo not given) was tested, and the IC50 was 0.13 µM.
`O=c1cc(NCCCNCc2c[nH]c3ccc(Br)cc23)[nH]c2ccccc12` was tested, and the IC50 was > 50 µM (inactive).
For `O=C(Nc1ccc(Br)cn1)c1ccc(Cn2cnc([N+](=O)[O-])n2)cc1`, the IC50 was > 50 µM (inactive).
`CC(C)(C)CC(=O)NCCc1csc(-c2ccc(F)cc2)n1` was tested, and the IC50 was > 50 µM (inactive).
With `N#Cc1ccccc1S(=O)(=O)N1CCN(C(=O)CNC(=O)c2ccc3c(c2)OCO3)CC1` the IC50 was 0.63 µM.
For `COc1ccccc1C=CCN1C[C@H]2CCC[C@@H](C1)C2(O)c1cccnc1` (stereo not given in full), the IC50 was > 50 µM (inactive).
`c1ccc(CCNCc2cncc3nc(-c4cnccn4)n(C4CCCCC4)c23)cc1` was tested, and the IC50 was > 50 µM (inactive).
For `COc1cccc(C(=O)[C@H]2C[C@@H]2CN(Cc2cccnc2)Cc2cccnc2)c1`, the IC50 was 0.16 µM.
`O=C(CN(Cc1ccccn1)Cc1ccccn1)NC1Cc2ccccc2C1` was tested, and the IC50 was 13 µM.
Work on `COc1ccc(CN(C)Cc2ccncc2)cc1-c1ccc(S(=O)(=O)NC2CCC2)s1` yielded an IC50 of 40 µM.
`O=C(Nc1cccc(Cl)c1)Nc1ccc([N+](=O)[O-])cc1Cl` showed an IC50 of 6.3 µM.
`COc1ccc(CNc2cc(C3CC3)nc(-c3nccn3C)n2)cc1` was tested, and the IC50 was 2 µM.
Molecule `O=C(O)[C@H]1C[C@@H]1c1ccc(-c2ccc(CN(CCc3ccccn3)C(=O)C3CCC3)cc2)cc1` has an IC50 of 25 µM.
With `Cc1c([N+](=O)[O-])c(C(=O)Nc2sc3c(c2C#N)CCC(C)C3)nn1C` (stereo not given) the IC50 was 25 µM.
In the case of `O=C1NCCn2ccc(Nc3nc(NC4CCC(O)CC4)ncc3Cl)c21` (stereo not given), the IC50 is reported as 2.5 µM.
For `C=CCOCC1Cn2nc([N+](=O)[O-])nc2O1` (stereo not given), the IC50 was > 50 µM (inactive).
Work on `Cc1cc(Nc2cc(C3CC3)[nH]n2)nc(N2CCC[C@H]2C(N)=O)n1` yielded an IC50 of 0.63 µM.
For `Cc1ncsc1CNc1cnc(-c2ccc3c(c2)OCCO3)c(-c2cnn(C)c2)c1`, the IC50 was 25 µM.
`Cc1cccnc1NC(=O)c1cccc(OCc2c(C)noc2C)c1` was tested, and the IC50 was > 50 µM (inactive).
With `CCc1cccc(CC)c1-n1c(SCC(=O)NC(=O)NCc2ccco2)nnc1-c1cccnc1` the IC50 was > 50 µM (inactive).
For `COc1ccc(C(=O)Nc2c(C)nn(COc3cccc(C(F)(F)F)c3)c2C)cc1`, the IC50 was > 50 µM (inactive).
For `CCOc1ccc(CC(=O)N2c3ccccc3CC2C(=O)NC)cc1` (stereo not given), the IC50 was > 50 µM (inactive).
`COc1ccccc1C1CC(c2ccc(NS(C)(=O)=O)cc2)=NN1C(=O)c1cccs1` (stereo not given) was tested, and the IC50 was 4 µM.
For `CC(C)(C)C(Cn1ccnc1)NC(=O)c1ccc2nc(C3CC3)oc2c1` (stereo not given), the IC50 was 20 µM.
Work on `CC(=O)NC1(c2ccccc2)CCN(CC(=O)Nc2ccccc2-c2ccccc2)CC1` yielded an IC50 of 20 µM.
`CC(Cn1ccnc1)NC(=O)C1CC1c1cccc(Cl)c1Cl` (stereo not given) gave an IC50 of 16 µM.
`CN(C)S(=O)(=O)c1ccc(-c2cnc(N)c(-c3nc4ccc(F)cc4[nH]3)c2)cc1` gave an IC50 of 2.5 µM.
`CS(=O)(=O)N1CCC(Nc2ncc(Br)c(Nc3cccc(F)c3C(N)=O)n2)CC1` was tested, and the IC50 was 0.1 µM.
Molecule `Cc1nn(-c2ccccc2)nc1CNC(=O)CN(Cc1ccccn1)Cc1ccccn1` has an IC50 of 7.9 µM.
For `O=C1c2cnc(N3CCCC3)nc2CN1c1ccc2c(c1)OCO2`, the IC50 was 6.3 µM.
Work on `COc1cc(C(C)C)c(S(C)(=O)=O)cc1C(=O)N1CCN(c2ccccc2Cl)CC1` yielded an IC50 of 5 µM.
